{"source": "paper PMC4860631", "about": "“Pharmacokinetics and tolerability of NSC23925b, a novel P-glycoprotein inhibitor: preclinical study in mice and rats” (Scientific Reports, 2016)", "key": {"CYP2B6": {"target": "T1, CYP2B6 (Homo sapiens, UniProt P20813)", "T1 construct": "from tissue; host or cells: human liver microsomes", "T1 sequence (P20813 1-491)": "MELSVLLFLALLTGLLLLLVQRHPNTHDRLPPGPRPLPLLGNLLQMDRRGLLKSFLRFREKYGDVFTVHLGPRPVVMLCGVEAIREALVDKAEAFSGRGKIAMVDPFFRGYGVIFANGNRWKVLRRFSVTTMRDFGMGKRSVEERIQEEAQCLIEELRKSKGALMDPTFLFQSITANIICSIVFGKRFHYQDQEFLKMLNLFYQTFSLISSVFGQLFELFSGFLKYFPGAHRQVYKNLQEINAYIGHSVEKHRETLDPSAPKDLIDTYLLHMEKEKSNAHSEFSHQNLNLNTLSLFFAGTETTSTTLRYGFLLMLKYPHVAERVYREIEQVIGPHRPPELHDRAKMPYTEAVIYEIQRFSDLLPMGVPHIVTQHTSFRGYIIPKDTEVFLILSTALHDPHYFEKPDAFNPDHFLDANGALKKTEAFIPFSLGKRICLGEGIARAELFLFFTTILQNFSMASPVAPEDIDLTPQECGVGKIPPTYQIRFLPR", "test": "HLM-LC-MS CYP450 inhibition assay, CYP2B6", "assay_type": "in vitro ADME", "details": "substrate bupropion 70 μM, hydroxylation, read-out: Compound IC50", "experimental": "(§1) Compounds were tested in triplicate."}, "[1]": {"test": "Plasma pharmacokinetics after single I.P./I.V. dose in male BALB/c mice (LC-MS/MS)", "details": "for AUC(0-inf): AUC0-inf; for AUC(0-t): AUC0-t; for Vd: VdSS; for clearance: CL; for k el: Kel", "experimental": "After dosing, blood samples were collected at different time points for each group. […] Three animals were used for each time point. Approximately 800 μL of blood was collected via orbital vein (a source of collecting sufficient volume of venous blood) from each anesthetized mouse by isoflurane, and 200 μL of blood was collected from the cannula implanted in the jugular vein. The catheter was implanted when the blood sample was collected at the first time point. Next, the blood was transferred to a prepared tube containing sodium heparin anticoagulant and mixed briefly by gentle inversion three to four times. The target and actual time of blood sampling were recorded relative to the time of dosing. Samples were placed on wet ice immediately after collection. Within 1 hour after collection, plasma was separated by centrifugation at 4,000 rpm for 10 minutes at 4 °C. The plasma was protected from light and stored at −80 °C until analyzed by liquid chromatography-mass spectrometry/mass spectrometry (LC-MS/MS) for quantification.\nUsing the data from the standards, calibration curves were generated for each analytical batch. Aliquots of 10.0 μL of samples, calibraton curve samples, and QC samples were supplemented with 100 μL of precipitant (a mixture of acetone and acetonitrile (30:70)). After vortexing for 3 min and centrifuging at 12,000 rpm for 3 min, 75.00 μL of the supernatant was transferred into a 96-well microplate with an equal volume of water. The 10 μL mixture solution was injected for LC-MS/MS analysis.\nData collection was performed using Analyst version 1.4 from Applied Biosystems. […] The data were also analyzed using Prism 5.0 software. Statistical significance was determined using independent two-tailed Student t-tests and one-way ANOVA for independent data. Differences of P < 0.05 were regarded as significant for all statistical analyses."}, "[2]": {"test": "Plasma pharmacokinetics after single I.P./I.V. dose in male Sprague-Dawley rats (LC-MS/MS)", "details": "for MRTIV / clearance / k el: SD rats; for clearance / k el / half-life: male, Sprague-Dawley, rat, plasma, iv, 1 mg/kg; for clearance: CL; for k el: Kel; for half-life: t1/2, SD rats"}, "[3]": {"details": "male, Sprague-Dawley, rat, in vivo, iv"}, "in vivo": {"test": "in vivo", "details": "male, Sprague-Dawley, rat, iv; for AUC(0-inf): AUC0-inf; for AUC(0-t): AUC0-t"}, "CYP2C19": {"target": "T2, CYP2C19 (Homo sapiens, UniProt P33261)", "T2 construct": "from tissue; host or cells: human liver microsomes", "T2 sequence (P33261 whole entry)": "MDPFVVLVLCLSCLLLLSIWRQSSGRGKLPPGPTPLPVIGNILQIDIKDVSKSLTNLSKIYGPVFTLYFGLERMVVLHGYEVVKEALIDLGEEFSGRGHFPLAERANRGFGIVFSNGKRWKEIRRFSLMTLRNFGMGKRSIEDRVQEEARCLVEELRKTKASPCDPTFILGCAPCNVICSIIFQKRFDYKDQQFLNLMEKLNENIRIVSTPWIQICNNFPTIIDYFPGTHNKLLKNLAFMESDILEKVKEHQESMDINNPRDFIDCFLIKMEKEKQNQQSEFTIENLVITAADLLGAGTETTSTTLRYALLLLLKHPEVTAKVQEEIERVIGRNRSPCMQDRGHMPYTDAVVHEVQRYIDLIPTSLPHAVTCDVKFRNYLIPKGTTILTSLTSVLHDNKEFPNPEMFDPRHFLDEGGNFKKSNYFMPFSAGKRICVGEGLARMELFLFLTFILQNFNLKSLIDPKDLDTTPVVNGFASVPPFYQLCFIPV", "test": "HLM-LC-MS CYP450 inhibition assay, CYP2C19", "assay_type": "in vitro ADME", "details": "substrate S-mephenytoin 35 μM, 4-hydroxylation, read-out: Compound IC50", "experimental": "as §1"}, "[4]": {"details": "male, BALB/c, mouse, in vivo, iv, 2 mg/kg"}, "[5]": {"details": "male, BALB/c, mouse, plasma, iv, 2 mg/kg, BALB/c mice, doxorubicin I.V. 2.00 mg/kg alone"}, "[6]": {"details": "male, BALB/c, mouse, plasma, iv, 2 mg/kg, BALB/c mice, doxorubicin I.V. 2.00 mg/kg combined with NSC23925b 2.50 mg/kg"}, "[7]": {"details": "doxorubicin I.V. 1.00 mg/kg alone"}, "[8]": {"details": "doxorubicin I.V. 1.00 mg/kg combined with NSC23925b 2.50 mg/kg"}, "[9]": {"details": "male, BALB/c, mouse, in vivo, iv, 5 mg/kg"}}, "note": "Read-outs that look alike come from different tables or passages of the source."}
{"smiles": "COC(=O)[C@H](c1ccccc1Cl)N1CCc2sccc2C1", "note": "[Clopidogrel, reference compound]", "values": [{"measurement": "IC50", "setting": "CYP2B6", "value": 914, "unit": "nM"}]}
{"smiles": "COc1cccc2c1C(=O)c1c(O)c3c(c(O)c1C2=O)C[C@@](O)(C(=O)CO)C[C@@H]3O[C@H]1C[C@H](N)[C@H](O)[C@H](C)O1", "note": "[Doxorubicin, reference compound]", "values": [{"measurement": "MRTIV", "setting": "[1]; BALB/c mice, doxorubicin I.V. 2.00 mg/kg alone", "value": "14.6 ± 5.71", "unit": "h"}, {"measurement": "MRTIV", "setting": "[1]; BALB/c mice, doxorubicin I.V. 2.00 mg/kg combined with NSC23925b 2.50 mg/kg", "value": "17.3 ± 4.17", "unit": "h"}, {"measurement": "AUMC0-inf", "setting": "[1]; [4]", "value": "4157 ± 2493", "unit": "h·h·ng·mL^−1"}, {"measurement": "AUMC0-t", "setting": "[1]; [4]", "value": "1470 ± 309", "unit": "h·h·ng·mL^−1"}, {"measurement": "AUC(0-inf)", "setting": "[1]; [4]", "value": "272 ± 53.7", "unit": "ng·h/mL"}, {"measurement": "AUC(0-t)", "setting": "[1]; [4]", "value": "207 ± 9.76", "unit": "ng·h/mL"}, {"measurement": "Vd", "setting": "[1]; [4]", "value": "105 ± 19.8", "unit": "L/kg"}, {"measurement": "clearance", "setting": "[1]; [5]", "value": "126 ± 22.4", "unit": "mL/min/kg"}, {"measurement": "clearance", "setting": "[1]; [6]", "value": "155 ± 19.2", "unit": "mL/min/kg"}, {"measurement": "k el", "setting": "[1]; [5]", "value": "1.89e-05", "unit": "s⁻¹"}, {"measurement": "k el", "setting": "[1]; [6]", "value": "1.52e-05", "unit": "s⁻¹"}, {"measurement": "half-life", "setting": "[1]; male, BALB/c, mouse, plasma, iv, 2 mg/kg, t1/2, BALB/c mice, doxorubicin I.V. 2.00 mg/kg alone", "value": "10.7 ± 3.29", "unit": "h"}, {"measurement": "half-life", "setting": "[1]; male, BALB/c, mouse, plasma, iv, 2 mg/kg, t1/2, BALB/c mice, doxorubicin I.V. 2.00 mg/kg combined with NSC23925b 2.50 mg/kg", "value": "12.8 ± 1.91", "unit": "h"}, {"measurement": "MRTIV", "setting": "[2]; [7]", "value": "11.1 ± 2.41", "unit": "h"}, {"measurement": "MRTIV", "setting": "[2]; [8]", "value": "16.1 ± 0.771", "unit": "h"}, {"measurement": "clearance", "setting": "[2]; [7]", "value": "151 ± 43.1", "unit": "mL/min/kg"}, {"measurement": "clearance", "setting": "[2]; [8]", "value": "120 ± 7.57", "unit": "mL/min/kg"}, {"measurement": "k el", "setting": "[2]; [7]", "value": "1.93e-05", "unit": "s⁻¹"}, {"measurement": "k el", "setting": "[2]; [8]", "value": "1.35e-05", "unit": "s⁻¹"}, {"measurement": "half-life", "setting": "[2]; [7]", "value": "10.5 ± 2.76", "unit": "h"}, {"measurement": "half-life", "setting": "[2]; [8]", "value": "14.3 ± 0.87", "unit": "h"}, {"measurement": "AUMC0-t", "setting": "[3]; 1 mg/kg", "value": "446 ± 282", "unit": "h·h·ng·mL^−1"}, {"measurement": "AUC(0-inf)", "setting": "in vivo; 1 mg/kg", "value": "117 ± 32.5", "unit": "ng·h/mL"}, {"measurement": "AUC(0-t)", "setting": "in vivo; 1 mg/kg", "value": "89.7 ± 35.6", "unit": "ng·h/mL"}, {"measurement": "Vd", "setting": "in vivo; 1 mg/kg, VdSS", "value": "97.1 ± 19.5", "unit": "L/kg"}]}
{"smiles": "COc1ccc2[nH]c([S+]([O-])Cc3ncc(C)c(OC)c3C)nc2c1", "note": "(centres unmarked) [Omeprazole, reference compound]", "values": [{"measurement": "IC50", "setting": "CYP2C19", "value": 4080, "unit": "nM"}]}
{"smiles": "CC(=O)O[C@H]1C(=O)[C@@]2(C)[C@H]([C@H](OC(=O)c3ccccc3)[C@]3(O)C[C@H](OC(=O)[C@H](O)[C@@H](NC(=O)c4ccccc4)c4ccccc4)C(C)=C1C3(C)C)[C@]1(OC(C)=O)CO[C@@H]1C[C@@H]2O", "note": "[Paclitaxel, reference compound]", "values": [{"measurement": "AUMC0-inf", "setting": "[1]; [9]", "value": "2911 ± 400", "unit": "h·h·ng·mL^−1"}, {"measurement": "AUMC0-t", "setting": "[1]; [9]", "value": "2728 ± 356", "unit": "h·h·ng·mL^−1"}, {"measurement": "MRTIV", "setting": "[1]; [9]", "value": "1.16 ± 0.147", "unit": "h"}, {"measurement": "AUC(0-inf)", "setting": "[1]; [9]", "value": "2520 ± 244", "unit": "ng·h/mL"}, {"measurement": "AUC(0-t)", "setting": "[1]; [9]", "value": "2500 ± 238", "unit": "ng·h/mL"}, {"measurement": "clearance", "setting": "[1]; [9]", "value": "33.2 ± 3.12", "unit": "mL/min/kg"}, {"measurement": "k el", "setting": "[1]; [9]", "value": 0.000149, "unit": "s⁻¹"}, {"measurement": "Vd", "setting": "[1]; [9]", "value": "2.31 ± 0.428", "unit": "L/kg"}, {"measurement": "half-life", "setting": "[1]; male, BALB/c, mouse, in vivo, iv, 5 mg/kg, t1/2", "value": "1.33 ± 0.28", "unit": "h"}, {"measurement": "AUMC0-inf", "setting": "[3]; 5 mg/kg", "value": "29892 ± 4245", "unit": "h·h·ng·mL^−1"}, {"measurement": "AUMC0-t", "setting": "[3]; 5 mg/kg", "value": "13231 ± 1265", "unit": "h·h·ng·mL^−1"}, {"measurement": "Kel", "setting": "[3]; 5 mg/kg", "value": "0.0602 ± 0.0042", "unit": "h⁻¹"}, {"measurement": "MRTIV", "setting": "[3]; 5 mg/kg", "value": "6.50 ± 0.853", "unit": "h"}, {"measurement": "VdSS", "setting": "[3]; 5 mg/kg", "value": "7.13 ± 1.34", "unit": "L/kg"}, {"measurement": "AUC(0-inf)", "setting": "in vivo; 5 mg/kg", "value": "4610 ± 517", "unit": "ng·h/mL"}, {"measurement": "AUC(0-t)", "setting": "in vivo; 5 mg/kg", "value": "4200 ± 492", "unit": "ng·h/mL"}, {"measurement": "clearance", "setting": "in vivo; 5 mg/kg, CL", "value": "18.2 ± 1.93", "unit": "mL/min/kg"}]}
